Source: patent US10329295B2, “Pyrrolotriazine inhibitors of IRAK4 activity” (MERCK SHARP & DOHME CORP., priority 2015, dated 2019)
Structures can show the parent of a compound that is named as a salt.

biological target: GST tagged IRAK4 (Homo sapiens (Human), UniProt Q9NWZ3); experiment: IRAK4 Kinase Assay (IMAP fluorescence polarization); format: biochemical; details: 0.5 nM GST tagged IRAK4, 100 μM ATP, 30 minutes at 25° C.
Experimental: The kinase activity of IRAK4 is determined by its ability to catalyze the phosphorylation of a fluorescent polypeptide substrate. The extent of phosphorylation is measured using the IMAP technology (Molecular Devices) where the phosphorylated fluorescent substrate binds to the large M(III)-based nanoparticles which reduces the rotational speed of the substrate and thus increases its fluorescent polarization (FP).
20 μL reaction mixture contains 10 mM TriHCl, pH 7.2, 0.5 nM GST tagged IRAK4 (SignalChem), 100 nM fluorescent peptide substrate (RP7030, Molecular Devices), 100 μM ATP, 1 mM DDT, 1 mM MgCl2, and 0.01% Tween 20. The reaction is initiated by the addition of ATP. After incubation for 30 minutes at 25° C., 60 μL of Progressive IMAP Reagent (Molecular Devices) is added to stop the reaction. Change in RP7030's FP is determined by a FP reader (Analyst HT, LJL BioSystems).

Chain of GST tagged IRAK4 (Q9NWZ3 whole entry): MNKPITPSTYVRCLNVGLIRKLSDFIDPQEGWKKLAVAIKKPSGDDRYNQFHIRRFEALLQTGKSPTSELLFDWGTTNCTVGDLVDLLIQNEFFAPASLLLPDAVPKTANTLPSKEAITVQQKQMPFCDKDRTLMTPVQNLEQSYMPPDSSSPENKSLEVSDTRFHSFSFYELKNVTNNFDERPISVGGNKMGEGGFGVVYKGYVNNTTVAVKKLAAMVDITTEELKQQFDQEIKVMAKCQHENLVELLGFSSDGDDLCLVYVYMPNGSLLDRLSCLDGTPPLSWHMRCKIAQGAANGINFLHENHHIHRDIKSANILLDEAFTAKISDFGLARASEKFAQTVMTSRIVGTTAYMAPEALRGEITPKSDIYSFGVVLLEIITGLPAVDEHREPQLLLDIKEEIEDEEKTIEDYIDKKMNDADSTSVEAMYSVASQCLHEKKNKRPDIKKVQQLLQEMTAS

| SMILES | IC50 |
| --- | --- |
| Cn1cc(NC(=O)c2ccc3cnc(N4CCC[C@H](N)C4)nn23)c(C#N)n1 [Example 123, 2-[(3S)-3-aminopiperidin-1-yl]-N-(3-cyano-1-methyl-1H-pyrazol-4-yl)pyrrolo[2,1-f][1,2,4]triazine-7-carboxamide trifluoroacetate] | 1 nM |
| Cn1cc(NC(=O)c2ccc3cnc(N4C[C@@H]5CC[C@H]4CN5)nn23)c(C(F)(F)F)n1 (single isomer, unassigned) [Example 170, 2-[(1S,4S)- or (1R,4R)-2,5-diazabicyclo[2.2.2]oct-2-yl]-N-[1-methyl-3-(trifluoromethyl)-1H-pyrazol-4-yl]pyrrolo[2,1-f][1,2,4]triazine-7-carboxamide] | 35 nM |
| N#Cc1cscc1NC(=O)c1ccc2cnc(N[C@@H]3CCCC[C@@H]3N)nn12 [Example 13, 2-{[(1R,2S)-2-aminocyclohexyl]amino}-N-(4-cyanothiophen-3-yl)pyrrolo[2,1-f][1,2,4]triazine-7-carboxamide trifluoroacetate] | 4 nM |
| O=C(Nc1ccccc1Br)c1ccc2cnc(N3C[C@@H]4CC[C@H]3CN4)nn12 (single isomer, unassigned) [Example 84, N-(2-bromophenyl)-2-[(1S,4S)- or (1R,4R)-2,5-diazabicyclo[2.2.2]oct-2-yl]pyrrolo[2,1-f][1,2,4]triazine-7-carboxamide trifluoroacetate] | 7810 nM |
| Cn1cc(NC(=O)c2ccc3cnc(N4C[C@@H](N)C[C@@H](F)C4)nn23)c(C(F)(F)F)n1 [Example 148, 2-[(3S,5R)-3-amino-5-fluoropiperidin-1-yl]-N-[1-methyl-3-(trifluoromethyl)-1H-pyrazol-4-yl]pyrrolo[2,1-f][1,2,4]triazine-7-carboxamide] | 20 nM |
| Cn1cc(NC(=O)c2ccc3cnc(N[C@@H]4CCCC[C@@H]4N)nn23)c(C#N)n1 [Example 35, 2-{[(1R,2S)-2-aminocyclohexyl]amino}-N-(3-cyano-1-methyl-1H-pyrazol-4-yl)pyrrolo[2,1-f][1,2,4]triazine-7-carboxamide trifluoroacetate] | 1 nM |
| O=C(Nc1ccccc1Br)c1ccc2cnc(N3CCCNCC3)nn12 [Example 33, N-(2-bromophenyl)-2-(1,4-diazepan-1-yl)pyrrolo[2,1-f][1,2,4]triazine-7-carboxamide trifluoroacetate] | 5350 nM |
| O=C(Nc1ccsc1Cl)c1ccc2cnc(N3C[C@H]4CC[C@@H]3CN4)nn12 (single isomer, unassigned) [Example 54, N-(2-chlorothiophen-3-yl)-2-[(1S,4S)- or (1R,4R)-2,5-diazabicyclo[2.2.2]oct-2-yl]pyrrolo[2,1-f][1,2,4]triazine-7-carboxamide trifluoroacetate] | 819 nM |
| Cn1cc(NC(=O)c2ccc3cnc(N[C@H]4CCCCNC4)nn23)c(C(F)F)n1 (single isomer, unassigned) [Example 91, 2-[(3S)- or (3R)-azepan-3-ylamino]-N-[3-(difluoromethyl)-1-methyl-1H-pyrazol-4-yl]pyrrolo[2,1-f][1,2,4]triazine-7-carboxamide trifluoroacetate] | 1 nM |
| N[C@@H]1[C@H](Nc2ncc3ccc(C(=O)Nc4ccsc4Cl)n3n2)CCCC1(F)F [Example 97, 2-{[(1R,2R)-2-amino-3,3-difluorocyclohexyl]amino}-N-(2-chlorothiophen-3-yl)pyrrolo[2,1-f][1,2,4]triazine-7-carboxamide trifluoroacetate] | 1910 nM |
| O=C(Nc1cscc1Br)c1ccc2cnc(N3CCCNCC3)nn12 [Example 23, N-(4-bromothiophen-3-yl)-2-(1,4-diazepan-1-yl)pyrrolo[2,1-f][1,2,4]triazine-7-carboxamide trifluoroacetate] | 1680 nM |
| Cn1cc(NC(=O)c2ccc3cnc(N4CCCNCC4)nn23)c(Br)n1 [Example 67, N-(3-bromo-1-methyl-1H-pyrazol-4-yl)-2-(1,4-diazepan-1-yl)pyrrolo[2,1-f][1,2,4]triazine-7-carboxamide trifluoroacetate] | 39 nM |
| Cn1cc(NC(=O)c2ccc3cnc(N4C[C@@H]5CC[C@H]4CN5)nn23)c(Br)n1 (single isomer, unassigned) [Example 63, N-(3-bromo-1-methyl-1H-pyrazol-4-yl)-2-[(1S,4S)- or (1R,4R)-2,5-diazabicyclo[2.2.2]oct-2-yl]pyrrolo[2,1-f][1,2,4]triazine-7-carboxamide trifluoroacetate] | 92 nM |

Results, then the compound that gave them:

| IC50 | SMILES |
| --- | --- |
| 35 nM | Cn1cc(NC(=O)c2ccc3cnc(N[C@@H]4CCCC[C@@H]4N)nn23)cn1 [Example 169, 2-{[(1R,2S)-2-aminocyclohexyl]amino}-N-(1-methyl-1H-pyrazol-4-yl)pyrrolo[2,1-f][1,2,4]triazine-7-carboxamide trifluoroacetate] |
| 1 nM | Cn1cc(NC(=O)c2ccc3cnc(NC4CCCCNC4)nn23)c(C(F)F)n1 (stereo not drawn) [Example 19, 2-(azepan-3-ylamino)-N-[3-(difluoromethyl)-1-methyl-1H-pyrazol-4-yl]pyrrolo[2,1-f][1,2,4]triazine-7-carboxamide trifluoroacetate] |
| 63 nM | O=C(Nc1cscc1C(F)F)c1ccc2cnc(N3C[C@H]4CC[C@@H]3CN4)nn12 (single isomer, unassigned) [Example 81, 2-[(1S,4S)- or (1R,4R)-2,5-diazabicyclo[2.2.2]oct-2-yl]-N-[4-(difluoromethyl)thiophen-3-yl]pyrrolo[2,1-f][1,2,4]triazine-7-carboxamide trifluoroacetate] |
| 229 nM | Cn1cc(NC(=O)c2ccc3cnc(N[C@@H]4CCCC(F)(F)[C@@H]4N)nn23)c(Cl)n1 [Example 79, 2-{[(1R,2R)-2-amino-3,3-difluorocyclohexyl]amino}-N-(3-chloro-1-methyl-1H-pyrazol-4-yl)pyrrolo[2,1-f][1,2,4]triazine-7-carboxamide trifluoroacetate] |
| 2 nM | Cn1cc(NC(=O)c2ccc3cnc(N4C[C@@H]5CNC[C@H]4C5)nn23)c(C(F)F)n1 (single isomer, unassigned) [Example 119, 2-[(1S,5R)- or (1R,5S)-3,6-diazabicyclo[3.2.1]oct-6-yl]-N-[3-(difluoromethyl)-1-methyl-1H-pyrazol-4-yl]pyrrolo[2,1-f][1,2,4]triazine-7-carboxamide] |
| 352 nM | Cn1cc(NC(=O)c2ccc3cnc(N4CCCNCC4)nn23)c(C#N)n1 [Example 34, N-(3-cyano-1-methyl-1H-pyrazol-4-yl)-2-(1,4-diazepan-1-yl)pyrrolo[2,1-f][1,2,4]triazine-7-carboxamide trifluoroacetate] |
| 399 nM | N#Cc1sccc1NC(=O)c1ccc2cnc(N3CC4CCC3CN4)nn12 (stereo not drawn) [Example 22, N-(2-cyanothiophen-3-yl)-2-(2,5-diazabicyclo[2.2.2]oct-2-yl)pyrrolo[2,1-f][1,2,4]triazine-7-carboxamide trifluoroacetate] |
| 7 nM | Cn1cc(NC(=O)c2ccc3cnc(N4CCNCC5(CC5)C4)nn23)c(C(F)(F)F)n1 [Example 9, 2-(5,8-diazaspiro[2.6]non-5-yl)-N-[1-methyl-3-(trifluoromethyl)-1H-pyrazol-4-yl]pyrrolo[2,1-f][1,2,4]triazine-7-carboxamide trifluoroacetate] |
| 26 nM | Cn1ncc(NC(=O)c2ccc3cnc(N[C@@H]4CCCC[C@@H]4N)nn23)c1C(F)(F)F [Example 70, 2-{[(1R,2S)-2-aminocyclohexyl]amino}-N-[1-methyl-5-(trifluoromethyl)-1H-pyrazol-4-yl]pyrrolo[2,1-f][1,2,4]triazine-7-carboxamide trifluoroacetate] |
| 867 nM | Cn1cc(NC(=O)c2ccc3cnc(N4C[C@@H]5CNC[C@H]4C5)nn23)c(C#N)n1 (single isomer, unassigned) [Example 135, N-(3-cyano-1-methyl-1H-pyrazol-4-yl)-2-[(1R,5S)- or (1S,5R)-3,6-diazabicyclo[3.2.1]oct-6-yl]pyrrolo[2,1-f][1,2,4]triazine-7-carboxamide] |
| 368 nM | O=C(Nc1cscc1Cl)c1ccc2cnc(N3C[C@@H]4CC[C@H]3CN4)nn12 (single isomer, unassigned) [Example 107, N-(4-chlorothiophen-3-yl)-2-[(1S,4S)- or (1R,4R)-2,5-diazabicyclo[2.2.2]oct-2-yl]pyrrolo[2,1-f][1,2,4]triazine-7-carboxamide trifluoroacetate] |
| 18 nM | Cn1cc(NC(=O)c2ccc3cnc(N[C@H]4CNC[C@H](F)C4)nn23)c(C(F)(F)F)n1 [Example 162, 2-{[(3R,5R)-5-fluoropiperidin-3-yl]amino}-N-[1-methyl-3-(trifluoromethyl)-1H-pyrazol-4-yl]pyrrolo[2,1-f][1,2,4]triazine-7-carboxamide trifluoroacetate] |
| 1 nM | Cn1cc(NC(=O)c2ccc3cnc(N[C@@H]4CCCC[C@@H]4N)nn23)c(Br)n1 [Example 66, 2-{[(1R,2S)-2-aminocyclohexyl]amino}-N-(3-bromo-1-methyl-1H-pyrazol-4-yl)pyrrolo[2,1-f][1,2,4]triazine-7-carboxamide trifluoroacetate] |
| 64 nM | Cn1cc(NC(=O)c2ccc3cnc(N4C[C@@H]5CN[C@@H](C5)C4)nn23)c(C(F)(F)F)n1 (single isomer, unassigned) [Example 100, 2-[(1S,5S)- or (1R,5R)-3,6-diazabicyclo[3.2.1]oct-3-yl]-N-[1-methyl-3-(trifluoromethyl)-1H-pyrazol-4-yl]pyrrolo[2,1-f][1,2,4]triazine-7-carboxamide] |
